According to ChEMBL document CHEMBL1201862, “PubChem BioAssay data set” (2004):
The source made the active and inactive calls.

Columns and labels:
cells [1] = type: functional, cell-based
[2] = target: T1, Trace amine-associated receptor 1 (Homo sapiens, UniProt Q96RJ0); assay: Counterscreen for agonists of the human trace amine associated receptor 1 (hTAAR1): Fluorescence-based cell-based high throughput dose response assay to identify hTAAR1 agonist that also desensitize TAAR1 receptor response.; type: functional
T1 sequence (Q96RJ0 whole entry): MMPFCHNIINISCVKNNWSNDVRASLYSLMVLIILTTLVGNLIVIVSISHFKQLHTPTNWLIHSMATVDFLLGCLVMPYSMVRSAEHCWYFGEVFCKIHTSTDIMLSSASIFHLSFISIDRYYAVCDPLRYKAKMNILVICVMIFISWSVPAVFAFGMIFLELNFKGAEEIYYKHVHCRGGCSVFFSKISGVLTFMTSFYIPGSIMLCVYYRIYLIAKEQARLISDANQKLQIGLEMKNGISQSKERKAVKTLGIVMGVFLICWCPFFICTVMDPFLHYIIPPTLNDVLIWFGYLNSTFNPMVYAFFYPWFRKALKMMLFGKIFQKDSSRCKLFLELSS

cells [3] = type: functional, cell-based; remark: listed apart in the source
[4] = target: T1, Trace amine-associated receptor 1; assay: Fluorescence-based cell-based high throughput dose response assay to identify agonists of the human trace amine associated receptor 1 (TAAR1).; type: functional
Streptokinase A = target: T2, Streptokinase A (Streptococcus pyogenes serotype M1, UniProt P10520); assay: S. pyogenes streptokinase expression inhibitors, potency, dose response, plasminogen activation absorbance, OD405 (AID 1914); type: functional, Streptococcus pyogenes M1 GAS;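 also: secreted streptokinase activity via plasminogen activation per viability signal from cell pellet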
T2 sequence (P10520 whole entry): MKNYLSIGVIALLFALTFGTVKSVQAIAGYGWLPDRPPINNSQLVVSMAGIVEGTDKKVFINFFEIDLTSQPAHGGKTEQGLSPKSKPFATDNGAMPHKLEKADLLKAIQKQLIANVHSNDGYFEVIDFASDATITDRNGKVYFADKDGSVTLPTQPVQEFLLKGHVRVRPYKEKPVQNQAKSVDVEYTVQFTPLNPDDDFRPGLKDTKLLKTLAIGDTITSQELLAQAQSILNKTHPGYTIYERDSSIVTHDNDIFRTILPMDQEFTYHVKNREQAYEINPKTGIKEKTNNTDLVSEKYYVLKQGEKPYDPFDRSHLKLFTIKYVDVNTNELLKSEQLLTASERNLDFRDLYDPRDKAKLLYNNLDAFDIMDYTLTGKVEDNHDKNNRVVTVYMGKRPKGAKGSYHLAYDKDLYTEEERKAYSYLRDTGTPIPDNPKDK

[5] = target: T3, Heat shock factor protein 1 (Mus musculus, UniProt P38532); assay: inhibition of MG132-induced HSE-luciferase signal, confirmation, cell-based, NIH3T3, luminescence, dose retest (AID 2382); type: functional;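 also: NIH3T3 fibroblasts with HSF1-driven luciferase reporter stressed by proteasome inhibitor MG132; luminescence from HSF1-driven luciferase expression after 8 hours of MG132 stress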
T3 sequence (P38532 whole entry): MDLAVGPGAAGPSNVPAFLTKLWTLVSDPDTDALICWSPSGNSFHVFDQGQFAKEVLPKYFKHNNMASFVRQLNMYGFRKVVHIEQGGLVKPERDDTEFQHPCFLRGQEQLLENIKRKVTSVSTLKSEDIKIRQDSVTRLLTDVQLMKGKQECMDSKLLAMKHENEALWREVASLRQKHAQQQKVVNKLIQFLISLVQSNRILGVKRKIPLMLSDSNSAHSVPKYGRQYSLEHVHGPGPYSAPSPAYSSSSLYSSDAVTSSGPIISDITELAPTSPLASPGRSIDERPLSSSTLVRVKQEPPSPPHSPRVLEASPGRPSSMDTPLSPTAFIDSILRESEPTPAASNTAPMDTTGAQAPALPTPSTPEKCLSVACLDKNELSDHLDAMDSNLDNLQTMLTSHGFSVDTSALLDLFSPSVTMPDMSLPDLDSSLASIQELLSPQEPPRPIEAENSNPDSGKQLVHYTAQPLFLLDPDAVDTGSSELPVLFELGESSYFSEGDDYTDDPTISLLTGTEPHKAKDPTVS

Streptococcus = assay: Group A Streptococcus viability loss, dose response, counter-screen for streptokinase expression inhibitor project, luminescence, BacTiterGlo (AID 1915); type: functional, organism-based;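 also: potency for reduction of bacterial viability or growth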
[6] = system: Streptococcus sp. 'group A'; assay: growth inhibition of control SK(-) GAS strain, dose response, counter-screen for streptokinase expression inhibitor project, luminescence, kanamycin, BacTiterGlo, confirmation (AID 1900); type: functional, organism-based
Albumin = Albumin (Bos taurus, UniProt P02769); assay: Counterscreen for inhibitors of T-cell receptor (TCR)-CD3 interaction: Fluorescence-based biochemical high throughput dose response assay to identify inhibitors of T-cell receptor (TCR)-CD3 interaction using a TAMRA-labeled BSA probe.; type: functional
Chain of Albumin (P02769 whole entry): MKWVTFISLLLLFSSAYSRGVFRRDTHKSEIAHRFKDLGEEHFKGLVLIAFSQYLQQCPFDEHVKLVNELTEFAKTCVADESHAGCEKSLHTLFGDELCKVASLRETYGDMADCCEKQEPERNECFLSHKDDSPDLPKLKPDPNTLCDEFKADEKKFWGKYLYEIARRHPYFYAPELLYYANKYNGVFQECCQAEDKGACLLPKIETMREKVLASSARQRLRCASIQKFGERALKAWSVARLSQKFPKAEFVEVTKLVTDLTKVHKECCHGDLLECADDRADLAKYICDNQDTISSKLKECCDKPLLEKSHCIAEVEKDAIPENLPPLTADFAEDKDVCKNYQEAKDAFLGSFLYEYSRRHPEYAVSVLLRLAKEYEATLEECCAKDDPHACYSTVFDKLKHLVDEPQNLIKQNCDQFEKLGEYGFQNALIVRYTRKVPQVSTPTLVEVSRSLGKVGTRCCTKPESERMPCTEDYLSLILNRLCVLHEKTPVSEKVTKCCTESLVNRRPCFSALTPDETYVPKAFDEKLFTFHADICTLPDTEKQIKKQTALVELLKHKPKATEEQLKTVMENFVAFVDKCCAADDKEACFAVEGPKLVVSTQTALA

[7] = target: T4, Short transient receptor potential channel 4 (Mus musculus, UniProt Q9QUQ5); assay: mouse TRPC4 channel activators, dose response, cell-based, HEK293 TRPC4/mu-opioid, Fluo-4 calcium (AID 434937); type: functional
T4 sequence (Q9QUQ5 whole entry): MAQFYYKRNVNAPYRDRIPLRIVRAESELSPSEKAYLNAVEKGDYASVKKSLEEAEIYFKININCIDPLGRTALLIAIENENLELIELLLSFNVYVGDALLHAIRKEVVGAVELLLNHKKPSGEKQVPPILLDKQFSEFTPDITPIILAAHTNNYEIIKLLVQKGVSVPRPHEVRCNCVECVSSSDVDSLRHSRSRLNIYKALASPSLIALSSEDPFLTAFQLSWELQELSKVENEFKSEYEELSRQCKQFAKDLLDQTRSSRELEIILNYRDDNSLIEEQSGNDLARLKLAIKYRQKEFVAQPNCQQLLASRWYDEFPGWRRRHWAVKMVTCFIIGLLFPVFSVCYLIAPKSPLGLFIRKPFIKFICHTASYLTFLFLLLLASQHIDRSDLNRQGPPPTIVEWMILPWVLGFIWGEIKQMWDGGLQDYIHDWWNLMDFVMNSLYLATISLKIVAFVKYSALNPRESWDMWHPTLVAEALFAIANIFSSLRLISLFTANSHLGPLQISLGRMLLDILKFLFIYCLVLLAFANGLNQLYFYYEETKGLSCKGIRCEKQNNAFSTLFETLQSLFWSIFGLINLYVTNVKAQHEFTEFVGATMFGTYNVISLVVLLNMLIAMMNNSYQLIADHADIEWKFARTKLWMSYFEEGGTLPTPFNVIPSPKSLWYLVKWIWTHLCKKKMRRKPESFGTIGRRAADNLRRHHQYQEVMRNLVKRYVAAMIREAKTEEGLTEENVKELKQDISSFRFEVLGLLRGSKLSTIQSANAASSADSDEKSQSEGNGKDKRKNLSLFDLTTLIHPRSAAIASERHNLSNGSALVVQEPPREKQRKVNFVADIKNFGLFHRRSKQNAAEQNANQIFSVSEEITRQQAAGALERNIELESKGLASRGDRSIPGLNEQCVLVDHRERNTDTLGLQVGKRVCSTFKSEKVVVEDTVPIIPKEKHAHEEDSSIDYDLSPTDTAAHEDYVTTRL

| Compound | EC50 (cells [1]) | IC50 [2] | IC50 (cells [3]) | EC50 [4] | EC50 (Streptokinase A) | EC50 [5] | EC50 (Streptococcus) | EC50 [6] | IC50 (Albumin) | EC50 [7] |
| --- | --- | --- | --- | --- | --- | --- | --- | --- | --- | --- |
| C/C(=N\CCc1ccccc1)C1=C(O)CCC1=O | > 29.9 µM (inactive) | 8.63 µM (active) | > 29.9 µM (inactive) | 1.94 µM (active) |  |  |  |  |  |  |
| CCCOC1CCCN(C(=O)c2cc(Cl)c(Cl)cc2C(=O)O)C1 (centres undefined) | > 29.9 µM (inactive) | > 29.9 µM (inactive) | > 29.9 µM (inactive) | 8.64 µM (active) |  |  |  |  |  |  |
| COc1ccc(C(=O)NNC(=S)NC(=O)c2cccs2)cc1 |  |  |  |  | > 150 µM (not active) | > 195 µM (not active) | 15.1 µM (active) | 3.71 µM (active) | > 94 µM (inactive) | 10.6 µM (active) |
